Test results taken from patent US11596639B2, “Substituted indole Mcl-1 inhibitors” (Vanderbilt University, priority 2016, dated 2023).
Where two headings read alike, the source gives them in different places.

Tests used:
Mcl-1 = Mcl-1 (Homo sapiens (Human), UniProt Q07820); assay: Fluorescence polarization anisotropy (FPA) competition assay, FITC-Bak or FITC-Bim BH3 peptide; type: binding; conditions: read-out: Ki for Inhibition of Mcl-1 by FPA assay
[1] = test system: H929 human cancer cell lines; assay: Cellular viability / proliferation (Cell TiterGlo, 72 h); type: cell-based
How it was run: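 Cells were seeded at 1,000 cells/well in medium with 10% FBS and dosed 24 h later with a 2-fold serial dilution of compound (top concentration 50 μM, final DMSO <1%).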

[2] = Homo sapiens, NCI-H929, 72 h, read-out: GI50 on cellular proliferation of H929 human cancer cell lines, H929 cells, 72 h, Cell TiterGlo, 10% FBS
[3] = H929 cells, 72 h, Cell TiterGlo, 10% FBS, read-out: GI50 on cellular proliferation of H929 human cancer cell lines

Sequence of Mcl-1 (Q07820 172-327): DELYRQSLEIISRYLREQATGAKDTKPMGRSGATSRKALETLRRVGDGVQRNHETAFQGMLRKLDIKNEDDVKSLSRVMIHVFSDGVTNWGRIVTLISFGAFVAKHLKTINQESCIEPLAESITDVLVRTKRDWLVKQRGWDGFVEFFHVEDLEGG

SMILES | Ki (Mcl-1) [nM] | GI50 [1, 2] [nM] | GI50 [1, 3] [nM]
Cc1cc(OCCCc2c3n(c4c(-c5c(C)nn(C)c5C)c(Cl)ccc24)[C@H](C)CN(c2cccc4c(C)c(C(=O)O)n(C)c24)C3=O)cc(C)c1Cl [Example 316, (R)-7-(7-Chloro-10-(3-(4-chloro-3,5-dimethylphenoxy)propyl)-4-methyl-1-oxo-6-(1,3,5-trimethyl-1H-pyrazol-4-yl)-3,4-dihydropyrazino[1,2-a]indol-2(1H)-yl)-1,3-dimethyl-1H-indole-2-carboxylic acid] | < 1 | 470 | –
Cc1cc(OCCCc2c3n(c4c(-c5c(C)nn(C)c5C)c(Cl)ccc24)[C@H](C)CN(c2cn(C)c4ccc(-c5noc(=O)[nH]5)cc24)C3=O)cc(C)c1Cl [Example 442, (R)-3-(3-(7-Chloro-10-(3-(4-chloro-3,5-dimethylphenoxy)propyl)-4-methyl-1-oxo-6-(1,3,5-trimethyl-1H-pyrazol-4-yl)-3,4-dihydropyrazino[1,2-a]indol-2(1H)-yl)-1-methyl-1H-indol-5-yl)-1,2,4-oxadiazol-5(4H)-one] | 2.3 | 230 | –
Cc1cc(OCCCc2c3n(c4c(-c5c(C)ncnc5C)c(Cl)ccc24)[C@H](C)CN(c2ccc(C(=O)O)c4cccnc24)C3=O)cc(C)c1Cl [Example 224, 8-[(4R)-7-chloro-10-[3-(4-chloro-3,5-dimethyl-phenoxy)propyl]-6-(4,6-dimethylpyrimidin-5-yl)-4-methyl-1-oxo-3,4-dihydropyrazino[1,2-a]indol-2-yl]quinoline-5-carboxylic acid] | < 1 | 2500 | –
CNS(=O)(=O)c1ccc2c(c1)c(N1C[C@@H](C)n3c(c(CCCOc4cc(C)c(Cl)c(C)c4)c4ccc(Cl)c(-c5c(C)nn(C)c5C)c43)C1=O)cn2C [Example 267, (R)-3-(7-chloro-10-(3-(4-chloro-3,5-dimethylphenoxy)propyl)-4-methyl-1-oxo-6-(1,3,5-trimethyl-1H-pyrazol-4-yl)-3,4-dihydropyrazino[1,2-a]indol-2(1H)-yl)-N,1-dimethyl-1H-indole-5-sulfonamide] | 4.7 | 3100 | –
Cc1cc(OCCCc2c3n(c4c(-c5c(C)nn(C)c5C)c(Cl)ccc24)CCCN(c2cn(CCN4CCOCC4)c4cc(C(=O)O)ccc24)C3=O)cc(C)c1Cl [Example 89, 3-(8-Chloro-11-(3-(4-chloro-3,5-dimethylphenoxy)propyl)-1-oxo-7-(1,3,5-trimethyl-1H-pyrazol-4-yl)-4,5-dihydro-1H-[1,4]diazepino[1,2-a]indol-2(3H)-yl)-1-(2-morpholinoethyl)-1H-indole-6-carboxylic acid] | < 1 | 1300 | –
Cc1cc(OCCCc2c3n(c4c(-c5c(C)nn(C)c5C)c(Cl)ccc24)[C@H](C)CN(c2cc(OCC4CCN(C)C4)cc4c2cc(C(=O)O)n4C)C3=O)cc(C)c1Cl (stereo partly drawn) [Example 331, 4-((M, R)-7-Chloro-10-(3-(4-chloro-3,5-dimethylphenoxy)propyl)-4-methyl-1-oxo-6-(1,3,5-trimethyl-1H-pyrazol-4-yl)-3,4-dihydropyrazino[1,2-a]indol-2(1H)-yl)-1-methyl-6-((1-methylpyrrolidin-3-yl)methoxy)-1H-indole-2-carboxylic acid] | 1.1 | – | 2300
Cc1cc(OCCCc2c3n(c4c(-c5c(C)nn(C)c5C)c(Cl)ccc24)[C@H](C)CN(c2cc(C(=O)O)c4ccn(CCN5CCOCC5)c4c2)C3=O)cc(C)c1Cl [Example 94, (R)-6-(7-chloro-10-(3-(4-chloro-3,5-dimethylphenoxy)propyl)-4-methyl-1-oxo-6-(1,3,5-trimethyl-1H-pyrazol-4-yl)-3,4-dihydropyrazino[1,2-a]indol-2(1H)-yl)-1-(2-morpholinoethyl)-1H-indole-4-carboxylic acid] | < 1 | 1500 | –
Cc1cc(OCCCc2c3n(c4c(-c5c(C)ncnc5C)c(Cl)ccc24)[C@H](C)CN(c2cccc4cc(C(=O)O)cnc24)C3=O)cc(C)c1Cl [Example 227, 8-[(4R)-7-chloro-10-[3-(4-chloro-3,5-dimethyl-phenoxy)propyl]-6-(4,6-dimethylpyrimidin-5-yl)-4-methyl-1-oxo-3,4-dihydropyrazino[1,2-a]indol-2-yl]quinoline-3-carboxylic acid] | < 1 | 1300 | –
CCn1cc(N2C[C@@H](C)n3c(c(CCCOc4cc(C)c(Cl)c(C)c4)c4ccc(Cl)c(-c5c(C)nn(C)c5C)c43)C2=O)c2cccc(C(=O)O)c21 [Example 83, (R)-3-(7-Chloro-10-(3-(4-chloro-3,5-dimethylphenoxy)propyl)-4-methyl-1-oxo-6-(1,3,5-trimethyl-1H-pyrazol-4-yl)-3,4-dihydropyrazino[1,2-a]indol-2(1H)-yl)-1-ethyl-1H-indole-7-carboxylic acid] | < 1 | 1100 | –
Cc1cc(OCCCc2c3n(c4c(-c5c(C)nn(C)c5C)c(Cl)ccc24)[C@H](C)CN(c2cc(C(C)C)cc4cc(C(N)=O)n(C)c24)C3=O)cc(C)c1Cl [Example 422, (R)-7-(7-Chloro-10-(3-(4-chloro-3,5-dimethylphenoxy)propyl)-4-methyl-1-oxo-6-(1,3,5-trimethyl-1H-pyrazol-4-yl)-3,4-dihydropyrazino[1,2-a]indol-2(1H)-yl)-5-isopropyl-1-methyl-1H-indole-2-carboxamide] | < 1 | 830 | –
Cc1cc(OCCCc2c3n(c4c(-c5c(C)nn(C)c5C)c(Cl)ccc24)[C@H](C)CN(c2cc(C(=O)O)cc4c2cc(C(F)(F)F)n4C)C3=O)cc(C)c1Cl [Example 211, 4-[(4R)-7-chloro-10-[3-(4-chloro-3,5-dimethyl-phenoxy)propyl]-4-methyl-1-oxo-6-(1,3,5-trimethylpyrazol-4-yl)-3,4-dihydropyrazino[1,2-a]indol-2-yl]-1-methyl-2-(trifluoromethyl)indole-6-carboxylic acid] | 3.1 | 11000 | –
Cc1cc(OCCCc2c3n(c4c(-c5c(C)ncnc5C)c(Cl)ccc24)[C@H](C)CN(c2cn(C)c4ccc(C(=O)O)cc24)C3=O)cc(C)c1Cl [Example 177, 3-[(4R)-7-chloro-10-[3-(4-chloro-3,5-dimethyl-phenoxy)propyl]-6-(4,6-dimethylpyrimidin-5-yl)-4-methyl-1-oxo-3,4-dihydropyrazino[1,2-a]indol-2-yl]-1-methyl-indole-5-carboxylic acid] | < 1 | 270 | –
Cc1cc(OCCCc2c3n(c4c(-c5c(C)nn(C)c5C)c(Cl)ccc24)[C@H](C)CN(c2cn(CCC4CCOCC4)c4ccc(C(=O)O)cc24)C3=O)cc(C)c1Cl [Example 240, (R)-3-(7-Chloro-10-(3-(4-chloro-3,5-dimethylphenoxy)propyl)-4-methyl-1-oxo-6-(1,3,5-trimethyl-1H-pyrazol-4-yl)-3,4-dihydropyrazino[1,2-a]indol-2(1H)-yl)-1-(2-(tetrahydro-2H-pyran-4-yl)ethyl)-1H-indole-5-carboxylic acid] | < 1 | 1900 | –
Cc1cc(OCCCc2c3n(c4c(-c5c(C)nn(C)c5C)c(Cl)ccc24)[C@H](C)CN(c2cn(C)c4ccc(-c5nc[nH]n5)cc24)C3=O)cc(C)c1Cl [Example 420, (R)-7-Chloro-10-(3-(4-chloro-3,5-dimethylphenoxy)propyl)-4-methyl-2-(1-methyl-5-(1H-1,2,4-triazol-3-yl)-1H-indol-3-yl)-6-(1,3,5-trimethyl-1H-pyrazol-4-yl)-3,4-dihydropyrazino[1,2-a]indol-1(2H)-one] | 2 | 280 | –
Cc1cc(OCCCc2c3n(c4c(-c5c(C)nn(C)c5C)c(Cl)ccc24)[C@H](C)CN(c2cn(C)c4ccc(-c5nnn[nH]5)cc24)C3=O)cc(C)c1Cl [Example 235, (R)-7-Chloro-10-(3-(4-chloro-3,5-dimethylphenoxy)propyl)-4-methyl-2-(1-methyl-5-(1H-tetrazol-5-yl)-1H-indol-3-yl)-&(1,3,5-trimethyl-1H-pyrazol-4-yl)-3,4-dihydropyrazino[1,2-a]indol-1(2H)-one] | < 1 | – | 240
Cc1cc(OCCCc2c3n(c4c(-c5c(C)nn(C)c5C)c(Cl)ccc24)[C@H](C)CN(c2cccc4cc(C#N)n(C)c24)C3=O)cc(C)c1Cl [Example 300, 7-[(4R)-7-chloro-10-[3-(4-chloro-3,5-dimethyl-phenoxy)propyl]-4-methyl-1-oxo-6-(1,3,5-trimethylpyrazol-4-yl)-3,4-dihydropyrazino[1,2-a]indol-2-yl]-1-methyl-indole-2-carbonitrile] | 2 | 5900 | –
Cc1cc(OCCCc2c3n(c4c(-c5c(C)nn(C)c5C)c(Cl)ccc24)[C@H](C)CN(c2cn(C)c4ccc(-c5n[nH]c(=O)o5)cc24)C3=O)cc(C)c1Cl [Example 444, (R)-5-(3-(7-Chloro-10-(3-(4-chloro-3,5-dimethylphenoxy)propyl)-4-methyl-1-oxo-6-(1,3,5-trimethyl-1H-pyrazol-4-yl)-3,4-dihydropyrazino[1,2-a]indol-2(1H)-yl)-1-methyl-1H-indol-5-yl)-1,3,4-oxadiazol-2(3H)-one] | 1.3 | 220 | –
COc1ccc(N2C[C@@H](C)n3c(c(CCCOc4cc(C)c(Cl)c(C)c4)c4ccc(Cl)c(-c5c(C)ncnc5C)c43)C2=O)c2c1cc(C(=O)O)n2Cc1ccccn1 [Example 302, 7-[(4R)-7-chloro-10-[3-(4-chloro-3,5-dimethyl-phenoxy)propyl]-6-(4,6-dimethylpyrimidin-5-yl)-4-methyl-1-oxo-3,4-dihydropyrazino[1,2-a]indol-2-yl]-4-methoxy-1-(2-pyridylmethyl)indole-2-carboxylic acid] | < 1 | < 200 | –
